The values below come from patent US10125134B2 (Mirati Therapeutics, Inc., priority 2016, dated 2018).

One may read the IC50 as the concentration that gives 50% inhibition.

The target of one experiment is KRas G12C (Homo sapiens, UniProt P01116, C118S/C51S/C80L/G12C). Nature of the experiment: KRas G12C Modification Assay (LCMS detection of covalent adduct). Format: binding. To be noted: normalized percent of control; tested at 5 μM concentration for 3 hours. Put shortly:
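Covalent modification was read by reverse-phase LC/MS of intact protein after compound exposure, each reaction stopped at its time point with 25 mM acetic acid. Unmodified-protein signal, taken as percent of total, was normalised to untreated protein and reported as POC.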

Experiment [1] relates to NCI-H358 cells (express KRas G12C), Phospho-ERK. Nature of the experiment: Cellular inhibition of KRas G12C: Phospho-ERK in NCI-H358 cells. The format is cell-based. To be noted: Homo sapiens, pERK(Thr202/Tyr204) normalized with GAPDH, NCI-H358 cells, 3 hours, read-out: IC50. The method, boiled down:
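IC50 derived by 4-parameter fit of GAPDH-normalized pERK(Thr202/Tyr204) signal, as percent of DMSO control. Signal came from in-cell immunodetection with infrared secondaries after 3 h compound exposure of KRas G12C NCI-H358 cells at 0.5% DMSO.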

The structures appear in SMILES notation. Like-named read-outs stand apart in the source and are kept apart here.

In the case of `C=CC(=O)N1CCN(c2nc(OC[C@@H]3C[C@@H](O)CN3C)nc3c2CCN(c2cccc4ccccc24)C3)CC1CC#N` (stereo partly drawn) [Example 218, 2-(1-acryloyl-4-(2-(((2S,4R)-4-hydroxy-1-methylpyrrolidin-2-yl)methoxy)-7-(naphthalen-1-yl)-5,6,7,8-tetrahydropyrido[3,4-d]pyrimidin-4-yl)piperazin-2-yl)acetonitrile], the POC entry on KRas G12C was “C (“C”>50% POC)”. Besides, the IC50 in experiment [1] (NCI-H358, 3 h) fell in the range of 0.1 to 1000 nM.

For `C=CC(=O)N1CCN(c2nc(OCC3CN(C)CCN3C)nc3c2CCN(c2cc(O)cc4ccccc24)C3)CC1` (centres unmarked) [Example 219, 1-(4-(2-((1,4-dimethylpiperazin-2-yl)methoxy)-7-(3-hydroxynaphthalen-1-yl)-5,6,7,8-tetrahydropyrido[3,4-d]pyrimidin-4-yl)piperazin-1-yl)prop-2-en-1-one], on KRas G12C, the POC result is on record as “C (“C”>50% POC)”. In addition, the IC50 in experiment [1] (NCI-H358, 3 h) is over 1000 nM.

As to `C=CC(=O)N1CCN(c2nc(OC[C@@H]3C[C@@H](F)CN3C)nc3c2CCN(c2cccc4ccccc24)C3)CC1CC#N` (stereo partly drawn) [Example 220, 2-(1-acryloyl-4-(2-(((2 S,4R)-4-fluoro-1-methylpyrrolidin-2-yl)methoxy)-7-(naphthalen-1-yl)-5,6,7,8-tetrahydropyrido[3,4-d]pyrimidin-4-yl)piperazin-2-yl)acetonitrile], the POC result at KRas G12C is given as “C (“C”>50% POC)”. Also, in experiment [1], the 50% inhibitory concentration (IC50) lay within 0.1 to 1000 nM.

As to `C=CC(=O)N1CCN(c2nc(OC[C@@H]3C[C@H](F)CN3C)nc3c2CCN(c2cccc4ccccc24)C3)CC1CC#N` (stereo partly drawn) [Example 221, 2-(1-acryloyl-4-(2-(((2S,4S)-4-fluoro-1-methylpyrrolidin-2-yl)methoxy)-7-(naphthalen-1-yl)-5,6,7,8-tetrahydropyrido[3,4-d]pyrimidin-4-yl)piperazin-2-yl)acetonitrile], the POC result on KRas G12C is recorded as “C (“C”>50% POC)”. Moreover, in experiment [1] (NCI-H358, 3 h), the IC50 fell in the range of 0.1 to 1000 nM.

`C=CC(=O)N1CCN(c2nc(OC[C@@H]3C[C@H](OC)CN3C)nc3c2CCN(c2cccc4ccccc24)C3)CC1CC#N` (stereo partly drawn) [Example 222, 2-(1-acryloyl-4-(2-(((2S,4S)-4-methoxy-1-methylpyrrolidin-2-yl)methoxy)-7-(naphthalen-1-yl)-5,6,7,8-tetrahydropyrido[3,4-d]pyrimidin-4-yl)piperazin-2-yl)acetonitrile]: on KRas G12C, the POC entry is on record as “C (“C”>50% POC)”. Besides, the IC50 in experiment [1] (NCI-H358, 3 h) is 0.1 to 1000 nM.

Regarding `C=CC(=O)N1CCN(c2nc(OC[C@@H]3CN(C)CCN3)nc3c2CCN(c2cccc4ccccc24)C3)CC1CC#N` (stereo partly drawn) [Example 223, 2-(1-acryloyl-4-(2-(((S)-4-methylpiperazin-2-yl)methoxy)-7-(naphthalen-1-yl)-5,6,7,8-tetrahydropyrido[3,4-d]pyrimidin-4-yl)piperazin-2-yl)acetonitrile], the POC entry on KRas G12C is given as “C (“C”>50% POC)”. The IC50 in experiment [1] (NCI-H358, 3 h) was 0.1 to 1000 nM.

Regarding `C=CC(=O)N1CCN(c2nc(OC[C@H]3CN(C)CCN3)nc3c2CCN(c2cccc4ccccc24)C3)CC1CC#N` (stereo partly drawn) [Example 224, 2-(1-acryloyl-4-(2-(((R)-4-methylpiperazin-2-yl)methoxy)-7-(naphthalen-1-yl)-5,6,7,8-tetrahydropyrido[3,4-d]pyrimidin-4-yl)piperazin-2-yl)acetonitrile], the POC entry at KRas G12C is given as “C (“C”>50% POC)”. Also, the IC50 in experiment [1] (NCI-H358, 3 h) is 0.1 to 1000 nM.

For `C=CC(=O)N1CCN(c2nc(OC[C@@H]3CCCN3C)nc3c2CCN(c2cc(F)ccc2OC(F)(F)F)C3)CC1CC#N` (stereo partly drawn) [Example 225, 2-(1-acryloyl-4-(7-(5-fluoro-2-(trifluoromethoxy)phenyl)-2-(((S)-1-methylpyrrolidin-2-yl)methoxy)-5,6,7,8-tetrahydropyrido[3,4-d]pyrimidin-4-yl)piperazin-2-yl)acetonitrile], on KRas G12C, the POC entry is “C (“C”>50% POC)”. In addition, the IC50 in experiment [1] (NCI-H358, 3 h) fell in the range of 0.1 to 1000 nM.

Take `C=CC(=O)N1CCN(c2nc(OC[C@@H]3CCCN3C)nc3c2CCN(c2cccnc2C(F)(F)F)C3)CC1CC#N` (stereo partly drawn) [Example 226, 2-(1-acryloyl-4-(2-(((S)-1-methylpyrrolidin-2-yl)methoxy)-7-(2-(trifluoromethyl)pyridin-3-yl)-5,6,7,8-tetrahydropyrido[3,4-d]pyrimidin-4-yl)piperazin-2-yl)acetonitrile]: on KRas G12C, the POC result is “C (“C”>50% POC)”. The half-inhibitory concentration (IC50) in experiment [1] (NCI-H358, 3 h) fell in the range of 0.1 to 1000 nM.

As to `C=CC(=O)N1CCN(c2nc(OC[C@@H]3CCCN3C)nc3c2CCN(c2ccccc2F)C3)CC1CC#N` (stereo partly drawn) [Example 227, 2-(1-acryloyl-4-(7-(2-fluorophenyl)-2-(((S)-1-methylpyrrolidin-2-yl)methoxy)-5,6,7,8-tetrahydropyrido[3,4-d]pyrimidin-4-yl)piperazin-2-yl)acetonitrile], the POC entry at KRas G12C is recorded as “A (“A”≤25% POC)”. Also, the IC50 in experiment [1] (NCI-H358, 3 h) lay within 0.1 to 1000 nM.

For `C=CC(=O)N1CCN(c2nc(OC[C@@H]3CCCN3C)nc3c2CCN(c2cccc(C)c2C)C3)CC1CC#N` (stereo partly drawn) [Example 228, 2-(1-acryloyl-4-(7-(2,3-dimethylphenyl)-2-(((S)-1-methylpyrrolidin-2-yl)methoxy)-5,6,7,8-tetrahydropyrido[3,4-d]pyrimidin-4-yl)piperazin-2-yl)acetonitrile], the POC result at KRas G12C is “C (“C”>50% POC)”. In experiment [1] (NCI-H358, 3 h), the IC50 was 0.1 to 1000 nM.

In the case of `C=CC(=O)N1CCN(c2nc(OC[C@@H]3CCCN3C)nc3c2CCN(c2ccccc2Cl)C3)CC1CC#N` (stereo partly drawn) [Example 229, 2-(1-acryloyl-4-(7-(2-chlorophenyl)-2-(((S)-1-methylpyrrolidin-2-yl)methoxy)-5,6,7,8-tetrahydropyrido[3,4-d]pyrimidin-4-yl)piperazin-2-yl)acetonitrile], the POC result at KRas G12C was “C (“C”>50% POC)”. The IC50 in experiment [1] (NCI-H358, 3 h) was 0.1 to 1000 nM.

Consider `C=CC(=O)N1CCN(c2nc(OC[C@@H]3CCCN3C)nc3c2CCN(c2cccc(F)c2C(F)(F)F)C3)CC1CC#N` (stereo partly drawn) [Example 230, 2-(1-acryloyl-4-(7-(3-fluoro-2-(trifluoromethyl)phenyl)-2-(((S)-1-methylpyrrolidin-2-yl)methoxy)-5,6,7,8-tetrahydropyrido[3,4-d]pyrimidin-4-yl)piperazin-2-yl)acetonitrile], for which, on KRas G12C, the POC entry was “C (“C”>50% POC)”. The IC50 in experiment [1] (NCI-H358, 3 h) is 0.1 to 1000 nM.

On to `C=CC(=O)N1CCN(c2nc(OCCCO)nc3c2CCN(c2cccc4ccccc24)C3)CC1CC#N` (centres unmarked) [Example 231, 2-(1-acryloyl-4-(2-(3-hydroxypropoxy)-7-(naphthalen-1-yl)-5,6,7,8-tetrahydropyrido[3,4-d]pyrimidin-4-yl)piperazin-2-yl)acetonitrile], for which the POC result on KRas G12C is reported as “C (“C”>50% POC)”. Besides, the IC50 in experiment [1] was 0.1 to 1000 nM.

With `C=CC(=O)N1CCN(c2nc(OCCCN3CCOCC3)nc3c2CCN(c2cc(O)cc(Cl)c2F)C3)CC1` [Example 232, 1-(4-(7-(3-chloro-2-fluoro-5-hydroxyphenyl)-2-(3-morpholinopropoxy)-5,6,7,8-tetrahydropyrido[3,4-d]pyrimidin-4-yl)piperazin-1-yl)prop-2-en-1-one], the POC entry at KRas G12C is listed as “C (“C”>50% POC)”. Also, the IC50 in experiment [1] is over 1000 nM.

As for `C=CC(=O)N1CCN(c2nc(OC[C@@H]3CCCN3CC)nc3c2CCN(c2cccc4ccccc24)C3)CC1CC#N` (stereo partly drawn) [Example 233, 2-(1-acryloyl-4-(2-(((S)-1-ethylpyrrolidin-2-yl)methoxy)-7-(naphthalen-1-yl)-5,6,7,8-tetrahydropyrido[3,4-d]pyrimidin-4-yl)piperazin-2-yl)acetonitrile], the POC entry on KRas G12C is “C (“C”>50% POC)”. Also, the IC50 in experiment [1] (NCI-H358, 3 h) was in the range of 0.1 to 1000 nM.
